Key:
[1] = test system: CT26 tumors; experiment: CT26 tumor model: ALK5 inhibitor with chemoradiation (RT+5FU), tumor growth and survival; type: in vivo, mouse; conditions: CT26 tumor-bearing mice, LY added to RT+5FU, FIG. 1B
Procedure: FIGS. 1A-1D are a series of panels showing that the TGFβR1 antagonist LY2157299 enhances chemo-radiation efficacy dependent on CD8α^+ cells in CT26 tumors. FIG. 1A is a treatment schema in the CT26 tumor model. Six to eight week old BALB/c mice were implanted subcutaneously in the left flank with 2×10^5 CT26 tumor cells. Seven days following implant, animals were randomized based on tumor size, and vehicle control or LY2157299 compound were administered by oral gavage twice daily every 12 hours at 150 mg/kg for 7 consecutive days. At day 14, some mice received five consecutive radiation treatments of 5 Gy targeted to tumor tissue along with 25 mg/kg injections of 5-fluorouracil (5FU) chemotherapy administered intraperitoneally on days 14, 16, and 18. LY treatment groups resumed BID oral dosing from days 21-27. Mean tumor growth (i) and survival (ii) were assessed three times per week up to 100 days or death (FIG. 1B). […] Arrows identify pSMAD2^+CD8^+ cells in vehicle mice. […] NS=not significant, *=p<0.05, **=p<0.01, ***=p<0.001.
FIGS. 6A-6D are a series of panels showing generation of tumor-specific immune memory following tumor eradication with TGFβ inhibition with chemoradiation. […] The number of mice cured over the total number of mice in each group is indicated in the top right corner. One representative experiment is shown reflective of two independent experiments. Mice who eradicated their tumors were rechallenged with CT26 and 4T1 tumors. CT26 tumor cells were rechallenged on the opposite flank as from the original cured tumor. In FIG. 6D, 4T1 and CT26 tumor establishment and growth was followed for up to 60 days post re-challenge. The number of tumors rejected per total mice rechallenged in each tumor type is indicated in the top right portion of the graph. ***=p<0.001
Animal studies and cell culture: C57BL/6, BALB/c, CD8Cre, Lyz2Cre, and Foxp3-eGFP-CreERT2 mice were purchased from the Jackson Laboratories (Bar Harbor, Maine). ALK5flox/flox mice were a generous gift from Andrew Weinberg (Providence Cancer Center). All transgenic mice were on C57BL/6 background. CT26, MC38, 4T1 and MCA205-OVA tumor cells were grown in DMEM medium supplemented with 10% heat-inactivated fetal bovine serum and 1% penicillin-streptomycin to 60-90% confluence prior to tumor implantation. All cells were washed 2× with 1×PBS and implanted subcutaneously in a 100 μl volume of 1×PBS in the lower flanks. 1×10^5 MC38 cells, 2×10^5 CT26 cells, 5×10^4 4 T1 cells, and 5×10^6 MCA205-OVA cells were used for tumor induction. Tumors were measured 3×/week until they reached the survival end-point of 144 mm^2. […] Following single cell preparation, cells were washed and resuspended in FACS buffer (1×PBS, 1% BSA, 2 mM EDTA) and counted prior to FACS staining using a Guava EasyCyte cytometer (Millipore). […]

[2] = test system: tumor infiltrating immune cells; experiment: FACS analysis of tumor-infiltrating immune cells after LY treatment; type: in vivo, mouse
[3] = LY-treated vs vehicle animals, day 14, FIG. 8E

Cc1cccc(-c2nn3c(c2-c2ccnc4ccc(C(N)=O)cc24)CCC3)n1 [LY2157299]
median survival ([1]; 150 mg/kg BID oral, p<0.01): 45 days | tumor growth [1]: significantly slowed tumor growth | tumor-infiltrating effector population (tSNE of flow cytometric data) ([2]; LY versus vehicle control treated animals, data not shown): enrichment of the tumor-infiltrating effector population | CD8^+ T cells infiltrating tumors [2, 3]: more CD8^+ T cells | macrophages and Tregs infiltrating tumors [2, 3]: fewer macrophages and Tregs | percentage of CD8^+ T cells expressing EOMES and Tbet ([2]; spleens, lymph nodes and CT26 tumors of LY-treated mice, FIG. 8F): increase
